Reference: the supplement of paper PMC10307832

Legend:
Experiment in all cases: relative viability (nuclei count vs DMSO), 5 days (fraction); higher = more cells survive
[1] = compound: C[C@@H](C(=O)N[C@@H](C1CCCCC1)C(=O)N2CCC[C@H]2C(=O)N[C@@H]3[C@@H](CC4=CC=CC=C34)OCC#CC#CCO[C@@H]5CC6=CC=CC=C6[C@@H]5NC(=O)[C@@H]7CCCN7C(=O)[C@H](C8CCCCC8)NC(=O)[C@H](C)NC)NC [AZD5582] + CC(C)C[C@H](NC(=O)[C@H](Cc1ccccc1)NC(=O)c1cnccn1)B(O)O [Bortezomib] (partner 0.002 µM)
Summary of the method: (§1)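 Lung cancer cell lines in 1536-well plates were dosed by pin tool the day after seeding, either with one drug alone or with a fixed anchor-drug dose plus five library-drug doses (not always all listed) in √10 steps. After 5 days, cells were fixed and their nuclei stained in one step (final 0.05% Triton X-100, 1% formaldehyde, 1 ug/ml Hoechst), then counted on 4× images. Relative viability is the nuclei count in treated wells divided by that in vehicle wells. Values are medians of duplicate plates.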

[2] = compound: C[C@@H](C(=O)N[C@@H](C1CCCCC1)C(=O)N2CCC[C@H]2C(=O)N[C@@H]3[C@@H](CC4=CC=CC=C34)OCC#CC#CCO[C@@H]5CC6=CC=CC=C6[C@@H]5NC(=O)[C@@H]7CCCN7C(=O)[C@H](C8CCCCC8)NC(=O)[C@H](C)NC)NC [AZD5582] + C[C@@H](Oc1cc(-c2cnn(C3CCNCC3)c2)cnc1N)c1c(Cl)ccc(F)c1Cl [Crizotinib] (partner 1 µM)
Summary of the method: as §1

[3] = compound: Cn1nnc2c(C(N)=O)ncn2c1=O [Temozolomide] + CC(C)C[C@H](NC(=O)[C@H](Cc1ccccc1)NC(=O)c1cnccn1)B(O)O [Bortezomib] (partner 0.002 µM)
Summary of the method: as §1

[4] = compound: Cn1nnc2c(C(N)=O)ncn2c1=O [Temozolomide] + NC(=O)Nc1cc(-c2cccc(F)c2)sc1C(=O)N[C@H]1CCCNC1 [AZD7762] (partner 0.2 µM)
Summary of the method: as §1

Cell Line	relative viability ([1]; first compound 0.001581 µM)	relative viability ([1]; first compound 0.005 µM)	relative viability ([1]; first compound 0.01581 µM)	relative viability ([1]; first compound 0.05 µM)	relative viability ([2]; first compound 0.001581 µM)	relative viability ([2]; first compound 0.005 µM)	relative viability ([2]; first compound 0.01581 µM)	relative viability ([2]; first compound 0.05 µM)	relative viability ([3]; first compound 0.2 µM)	relative viability ([3]; first compound 0.6325 µM)	relative viability ([3]; first compound 2 µM)	relative viability ([3]; first compound 6.325 µM)	relative viability ([3]; first compound 20 µM)	relative viability ([4]; first compound 0.2 µM)	relative viability ([4]; first compound 0.6325 µM)	relative viability ([4]; first compound 2 µM)	relative viability ([4]; first compound 6.325 µM)	relative viability ([4]; first compound 20 µM)
NCI-H2085	0.953	1.19	0.933	1.17	0.732	0.874	0.854	0.754	0.992	1.26	1.04	1.01	0.888	0.878	1.03	0.938	0.928	0.972
RERF-LC-KJ	–	0.42	1.11	0.654	0.525	0.516	0.792	0.782	1.13	1.3	1.17	1.09	1.08	0.977	0.926	0.989	0.953	1.01
NCI-H727	0.761	0.932	0.851	1.04	0.762	0.896	0.749	0.721	0.884	0.903	1.09	0.768	0.803	–	0.521	0.512	0.606	0.412
NCI-H1651	0.831	0.907	0.87	0.987	0.85	0.91	0.854	0.939	1.01	0.975	0.989	0.915	0.898	0.392	0.403	0.478	0.465	0.419
LCLC-97TM1	0.542	0.531	0.455	0.298	–	0.269	0.338	0.257	1.48	0.594	0.749	0.68	0.687	0.352	0.293	–	0.168	0.253
NCI-H1734	0.959	0.963	0.966	1.14	0.662	0.717	0.682	0.746	1.07	0.871	0.963	0.771	0.949	0.642	0.623	0.646	0.488	0.559
NCI-H2126	1.08	1.1	1.01	1.05	1.04	0.932	0.967	0.662	1.13	1.15	1.1	1.1	1.08	1.05	1.02	1.02	0.959	1.11
PC-3 [JPC-3]	0.8	0.788	0.793	0.38	0.862	0.882	0.97	0.314	0.844	0.781	0.874	0.791	0.418	0.775	0.916	0.825	0.797	0.529
NCI-H1993	1.06	1.38	1.15	1.1	0.824	0.826	0.819	0.915	0.944	1.19	1.14	1.07	0.736	0.678	0.764	1.03	0.692	0.71
NCI-H2087	0.874	0.861	0.735	0.933	0.689	0.911	0.692	0.937	0.973	0.918	0.738	0.681	0.948	1.38	1.31	1.46	1.35	1.33
HOP-62	0.652	0.527	0.691	0.566	0.781	1.05	1	0.875	0.801	0.88	0.911	0.59	0.932	0.82	0.512	0.635	0.503	0.742
HCC-15	0.921	1.01	0.864	0.975	0.646	0.536	0.754	0.455	1.02	1.06	1.05	0.975	1.1	1.53	1.18	1.29	1.32	1.4
NCI-H2405	0.972	1.01	0.88	0.947	0.785	0.957	0.804	0.9	1.07	0.976	1.01	0.715	0.954	0.821	0.79	0.828	0.759	0.75
PC-14	0.736	0.777	0.85	0.743	0.787	0.835	0.909	0.742	0.94	0.872	0.943	0.83	1.04	0.361	0.402	0.322	0.275	0.15
NCI-H1975	0.327	0.458	0.373	0.414	1.07	1.1	0.938	1.04	0.462	0.418	0.384	0.413	0.298	–	0.778	0.85	0.679	0.78
LCLC-103H	0.972	1.14	0.958	1	1.1	1.08	1.02	0.777	1.13	1.09	1.04	1.08	1.01	0.849	0.758	0.902	0.678	0.771
